One assay addresses T1, human CRF2a receptor (Homo sapiens, UniProt Q13324).
T1 construct: expressed in transfected cells; host or cells: TeloHEAC cells
T1 sequence (Q13324 1-411): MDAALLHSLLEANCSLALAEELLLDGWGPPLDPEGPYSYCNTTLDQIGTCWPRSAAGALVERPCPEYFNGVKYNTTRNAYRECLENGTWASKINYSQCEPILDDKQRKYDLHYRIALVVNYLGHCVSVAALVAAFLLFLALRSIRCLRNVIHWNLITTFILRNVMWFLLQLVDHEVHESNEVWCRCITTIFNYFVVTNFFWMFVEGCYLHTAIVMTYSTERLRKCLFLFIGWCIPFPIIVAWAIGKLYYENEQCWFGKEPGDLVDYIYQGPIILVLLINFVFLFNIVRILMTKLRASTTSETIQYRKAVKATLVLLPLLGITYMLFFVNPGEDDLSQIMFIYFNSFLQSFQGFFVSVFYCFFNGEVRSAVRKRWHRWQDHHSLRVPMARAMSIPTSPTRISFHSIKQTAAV
The experiment in a line: Activity at human CRF2a receptor, cAMP functional assay in TeloHEAC cells. It counts as cell-based. Conditions: TeloHEAC cells stably expressing human CRF2a receptor, relative to urocortin 2 (100 nM = 100%). An outline of the steps:
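TeloHEAC cells stably expressing human CRF2a (10000 cells/well) were treated with 16-point 1:2 compound dilutions in HBSS/20 mM HEPES with IBMX for 30 min at 37° C. cAMP was read by HTRF (665/620 nm ratio). EC50 was the concentration giving 50% activation, with 100 nM urocortin 2 set as 100%.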

A further assay addresses T2, CFR1R receptor (Homo sapiens, UniProt P34998).
T2 construct: host or cells: CHO-K1 (clone 2)
T2 sequence (P34998 24-415): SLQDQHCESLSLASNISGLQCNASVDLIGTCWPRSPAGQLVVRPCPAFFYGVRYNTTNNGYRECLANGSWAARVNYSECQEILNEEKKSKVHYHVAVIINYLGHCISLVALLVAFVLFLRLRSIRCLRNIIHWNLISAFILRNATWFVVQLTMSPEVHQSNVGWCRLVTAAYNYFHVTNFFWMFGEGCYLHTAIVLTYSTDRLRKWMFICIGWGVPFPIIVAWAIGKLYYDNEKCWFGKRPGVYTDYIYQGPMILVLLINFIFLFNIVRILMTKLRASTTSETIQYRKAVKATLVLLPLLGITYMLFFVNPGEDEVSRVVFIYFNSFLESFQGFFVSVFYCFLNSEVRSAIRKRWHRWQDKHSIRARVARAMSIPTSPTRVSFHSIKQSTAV
As to the kind of experiment: Activity at anti-target CFR1R receptor, cAMP assay in CRF1R-overexpression CHO-K1 cells. In kind it is cell-based. Conditions: 100% = Sauvagine at 100 nM; for EC50: cAMP. The method, boiled down:
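Signal is normalised to 100 nM Sauvagine, taken as 100% activation, in clone 2 cells plated at a final 4000 cells/well from frozen stocks.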
Background: Cyclic AMP is a second messenger, typically raised through Gs and lowered through Gi signalling.

*1 amine or outer side, *2 acyl side, *3 side chain or, on linkers, in order; H or OH if unused. Where a SMILES comes first, the peptide text is derived from it. Side-chain parts run from the residue outwards. [ ]: non-standard residue; d: D form. The star is where a group is joined. C16 diacid = O=C(O)CCCCCCCCCCCCCCC(=O)*; γGlu = O=C(O)[C@H](CCC(=O)[*:2])N[*:1]; NMeI = CC[C@H](C)[C@H](NC)C(=O)O; Abu = CC[C@H](N)C(=O)O; Aib = CC(C)(N)C(=O)O

Broadly, the EC50 is the concentration at which the effect is half-maximal. A lower EC50 goes with an effect from little substance.

For `CC[C@H](C)[C@H](NC(C)=O)C(=O)N[C@H](C(=O)N[C@@H](CC(C)C)C(=O)N[C@@H](CO)C(=O)N[C@@H](CC(C)C)C(=O)N[C@@H](CC(=O)O)C(=O)N[C@@H](C(=O)N1CCC[C@H]1C(=O)N[C@H](C(=O)N[C@@H](CCCCN)C(=O)N[C@@H](CC(C)C)C(=O)N[C@@H](CCCCNC(=O)CC[C@H](NC(=O)CCCCCCCCCCCCCCC(=O)O)C(=O)O)C(=O)N[C@@H](C)C(=O)N[C@H](C(=O)N[C@@H](CC(C)C)C(=O)N[C@@H](CC(C)C)C(=O)N[C@@H](CCC(=O)O)C(=O)N[C@@H](CCC(N)=O)C(=O)N[C@@H](CCC(=O)O)C(=O)N[C@@H](CCCCN)C(=O)N[C@@H](CCC(N)=O)C(=O)N[C@@H](CCCCN)C(=O)N[C@@H](CCCCN)C(=O)N[C@@H](CCC(N)=O)C(=O)N[C@@H](CCCNC(=N)N)C(=O)N[C@@H](CCC(=O)O)C(=O)N[C@@H](CCC(N)=O)C(=O)N[C@@H](C)C(=O)N[C@@H](CCC(=O)O)C(=O)N[C@H](C(=O)N[C@@H](CC(N)=O)C(=O)NC(C)(C)C(=O)N[C@@H](CCC(N)=O)C(=O)N[C@H](C(=O)N[C@@H](CC(C)C)C(=O)N[C@@H](C)C(=O)N[C@@H](CCC(N)=O)C(=O)N[C@H](C(N)=O)C(C)C)[C@@H](C)CC)[C@@H](C)O)[C@@H](C)CC)[C@@H](C)CC)C(C)C)C(C)C` [compound 164] (Ac-IVLSLD[dV]PIKLK([γGlu-C16 diacid])AILLEQEKQKKQREQAETN[Aib]QILAQV-NH2), the concentration for a half-maximal effect (EC50) at human CRF2a receptor was found to be 2.43 nM. Also, at CFR1R receptor, the “Emax (% I)” value came to 14 % I and the EC50 is over 250 nM.
Regarding `CC[C@H](NC(=O)[C@H](CC(N)=O)NC(=O)[C@@H](NC(=O)[C@H](CCC(=O)O)NC(=O)[C@H](C)NC(=O)[C@H](CCC(N)=O)NC(=O)[C@H](CCC(=O)O)NC(=O)[C@H](CCCNC(=N)N)NC(=O)[C@H](CCC(N)=O)NC(=O)[C@H](CCCCN)NC(=O)[C@H](CCCCN)NC(=O)[C@H](CCC(N)=O)NC(=O)[C@H](CCCCN)NC(=O)[C@H](CCC(=O)O)NC(=O)[C@H](CCC(N)=O)NC(=O)[C@H](CCC(=O)O)NC(=O)[C@H](CC(C)C)NC(=O)[C@H](CC(C)C)NC(=O)[C@@H](NC(=O)[C@H](CCCCN)NC(=O)[C@H](CCCCNC(=O)CC[C@H](NC(=O)CCCCCCCCCCCCCCC(=O)O)C(=O)O)NC(=O)[C@H](CC(C)C)NC(=O)[C@H](CCCCN)NC(=O)[C@@H](NC(=O)[C@@H]1CCCN1C(=O)[C@H](NC(=O)[C@H](CC(=O)O)NC(=O)[C@H](CC(C)C)NC(=O)[C@H](CO)NC(=O)[C@H](CC(C)C)NC(=O)[C@@H](NC(=O)[C@@H](NC)[C@@H](C)CC)C(C)C)C(C)C)[C@@H](C)CC)[C@@H](C)CC)[C@@H](C)O)C(=O)N[C@@H](CCC(N)=O)C(=O)N[C@H](C(=O)N[C@@H](CC(C)C)C(=O)N[C@@H](C)C(=O)N[C@@H](CCC(N)=O)C(=O)N[C@H](C(N)=O)C(C)C)[C@@H](C)CC` [compound 69] (H-[NMeI]VLSLD[dV]PIKLK([γGlu-C16 diacid])KILLEQEKQKKQREQAETN[Abu]QILAQV-NH2), the concentration for a half-maximal effect (EC50) at human CRF2a receptor is 0.09 nM; on CFR1R receptor it was over 250 nM. The “Emax (% I)” value on CFR1R receptor is 3 % I.

These data come from patent US20260001928A1 (CORTERIA PHARMACEUTICALS, priority 2022, published 2026).
